Tested on: IL-1a-induced PGE2 in neonatal human dermal fibroblasts
Experiment: Inhibition of IL-1a-induced PGE2 production in fibroblasts (PGE2 enzyme immunoassay)
Format: cell-based
Procedure: Neonatal human dermal fibroblasts (passage 5-9) were seeded at a density of 7500 cells per well in 96-well tissue culture treated plates (Corning-Costar, Corning, N.Y.). The medium used was Dulbecco's Modified Eagle's Medium (DMEM), high-glucose (Gibco/Life Technologies, Gaithersburg, Md.) supplemented with 2 mM L-glutamine, 10% fetal bovine serum, and antibiotic and anti mycotic solutions (all also Life Technologies). After 48 hours, each well was rinsed twice with 200 μl serum-free DMEM and the cells dosed with 200 μl in DMEM+L-glutamine containing IL-1α at 1 ng/ml +/− active. […]
Enzyme immunoassay was performed using a commercial PGE2 kit (Amersham, Buckinghamshire, England). […] The assay is based on the competition between unlabelled PGE2 (standard or sample) and a fixed quantity of peroxidase labelled PGE2 for a limited amount of the well-bound PGE2-specific antibody. […] The Dynatech MR7000 microplate spectrophotometer (Dynatech, Chantilly, Va.) was used to quantitate color in the wells by reading absorbance at 450 nm. […]
The antiinflammatory potential of the test compounds is assessed by the ability of the compound to inhibit IL-1a-induced PGE2 and is expressed as the ratio of PGE2 produced by the cells treated with the test compound +IL-1a to PGE2 produced by the cells treated with IL-1a alone. […] Statistical significance was determined using the student's t-test.

Chicoric acid
Ratio of PGE2 with echinacea + IL-1a/IL-1a (Table 1b, concentration 0.001%): 0.02
Effectiveness in the PGE2 test (in words) (at 0.001%): effective

Reference: US20020009508A1, “Echinacea extract as anti-irritant and anti-aging booster in cosmetic compositions” (priority 2000, published 2002)
